Results as given in patent US11052153B2, “Highly branched alpha-D-glucans” (Purdue Research Foundation, priority 2012, dated 2021).

How the values were obtained:
physchem = assay type: physicochemical; conditions: 22 °C, pH 6.6, aqueous buffer, kinetic from dmso stock
Salmonella typhimurium = assay: Minimum inhibitory concentration of thymol in BHI broth (turbidity); assay type: cell-based; conditions: Salmonella enterica, 37° C., 24 hours, 1.0% (v/v) inoculum
Protocol: The mixture was subjected to high speed homogenization. After homogenization, the dispersion was centrifuged to collect aqueous liquid. The concentration of thymol in this phytoglycogen-thymol liquid stock was determined to be about 400 μg/mL. As reference, a thymol-alone stock of 400 μg/mL in sodium acetate buffer (50 mM, pH 5.5) was prepared by adding thymol in the buffer and vortex. The phytoglycogen-thymol stock and thymol-alone stock were added to Brain Heart Infusion (BHI) broth to make the thymol concentrations of 12.5, 25, 50, 80, 100, and 125 μg/mL. To the glass tubes containing these broth liquids, Salmonella typhimurium culture (about 10^9 CFU/mL) was inoculated at a 1.0% (v/v) level, and all liquids were incubated at 37° C. for 24 hours. Thereafter, the tubes were photographed for comparing the turbidity.

[1] = Curcumin solubility in pH 6.5 10 mM NaAc buffer as affected by carriers; assay type: physicochemical; conditions: carrier 10 mg/mL; for Curcumin Solubility: excess curcumin homogenized
Protocol: Thereafter, 1.0 mL aliquot was drawn from each mixture and subjected to centrifugation. The supernatant was added to ethanol to extract curcumin.

solubility at 2 h (physchem) [µg/mL] | MIC (Salmonella typhimurium) [µg/mL] | Carrier/curcumin ratio [1] | Curcumin Solubility [1] [µg/mL] | Compound
< 0.3 | – | – | – | COc1cc(/C=C/C(=O)CC(=O)/C=C/c2ccc(O)c(OC)c2)ccc1O [curcumin]
– | > 125 | – | – | Cc1ccc(C(C)C)c(O)c1 [thymol-alone, thymol]
– | – | 222/1 | 45.1 | OC[C@H]1O[C@@H]2O[C@H]3[C@H](O)[C@@H](O)[C@@H](O[C@H]4[C@H](O)[C@@H](O)[C@@H](O[C@H]5[C@H](O)[C@@H](O)[C@@H](O[C@H]6[C@H](O)[C@@H](O)[C@@H](O[C@H]7[C@H](O)[C@@H](O)[C@@H](O[C@H]8[C@H](O)[C@@H](O)[C@@H](O[C@H]1[C@H](O)[C@H]2O)O[C@@H]8CO)O[C@@H]7CO)O[C@@H]6CO)O[C@@H]5CO)O[C@@H]4CO)O[C@@H]3CO [βCD, β-cyclodextrin]
– | – | 91/1 | 110 | hydroxypropyl β-cyclodextrin [HPβCD]
